Assay results from PubChem BioAssay AID330 (DTP/NCI, 2004).
Several values for one entry are separate records, joined by “and”; a condition that tells them apart may be missing. Equal entries are not always repeated. Toxic doses and inconclusive results are not listed.

Test system: P388 leukemia ip, CD2F1 mice, survival T/C
Experiment: NCI In Vivo Anticancer Drug Screen. Data for tumor model P388 Leukemia (intraperitoneal) in CD2F1 (CDF1) mice
Conditions: endpoint: median survival time, higher = longer survival
Procedure, shortened: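 Mice carrying the transplanted tumor received test compound or vehicle. Survival was recorded in each group, and the value is the treated-group measurement divided by that of the vehicle-treated control group.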

[1] = dose: 60.0 mg/kg/injection, schedule: Q01DX005 (ip), vehicle: saline
[2] = dose: 12.5 mg/kg/injection, schedule: Q01DX005 (ip), vehicle: Klucel (hydroxypropylcellulose) (HPC)
[3] = dose: 25.0 mg/kg/injection, schedule: Q01DX005 (ip), vehicle: Klucel (hydroxypropylcellulose) (HPC)
[4] = dose: 50.0 mg/kg/injection, schedule: Q01DX005 (ip), vehicle: Klucel (hydroxypropylcellulose) (HPC)
[5] = dose: 60.0 mg/kg/injection, schedule: Q01DX005 (ip), vehicle: saline with Tween-80
[6] = dose: 120.0 mg/kg/injection, schedule: Q01DX005 (ip), vehicle: saline with Tween-80
[7] = dose: 240.0 mg/kg/injection, schedule: Q01DX005 (ip), vehicle: saline with Tween-80
[8] = dose: 100.0 mg/kg/injection, schedule: Q01DX009 (ip), vehicle: saline with Tween-80
[9] = dose: 200.0 mg/kg/injection, schedule: Q01DX009 (ip), vehicle: saline with Tween-80
[10] = dose: 100.0 mg/kg/injection, schedule: Q01DX005 (ip), vehicle: Klucel (hydroxypropylcellulose) (HPC)
[11] = dose: 50.0 mg/kg/injection, schedule: Q01DX009 (ip), vehicle: Klucel (hydroxypropylcellulose) (HPC)
[12] = dose: 100.0 mg/kg/injection, schedule: Q01DX009 (ip), vehicle: Klucel (hydroxypropylcellulose) (HPC)
[13] = dose: 200.0 mg/kg/injection, schedule: Q01DX009 (ip), vehicle: Klucel (hydroxypropylcellulose) (HPC)
[14] = dose: 50.0 mg/kg/injection, schedule: Q01DX009 (ip), vehicle: saline with Tween-80
[15] = dose: 200.0 mg/kg/injection, schedule: Q01DX005 (ip), vehicle: Klucel (hydroxypropylcellulose) (HPC)

CCS1=C2C(=O)CCCC2=Nc2ccccc21 (stereo not drawn)
T/C (dose: 15.0 mg/kg/injection, schedule: Q01DX005 (ip), vehicle: saline): 100 % of control
T/C (dose: 30.0 mg/kg/injection, schedule: Q01DX005 (ip), vehicle: saline): 104 % of control
T/C (dose: 50.0 mg/kg/injection, schedule: Q01DX005 (ip), vehicle: saline): 99 % of control
T/C [1]: 92 % of control

[Cl][Zn][Cl].c1ccc2[nH]cnc2c1.c1ccc2[nH]cnc2c1
T/C [2]: 100 % of control
T/C [3]: 108 % of control
T/C [4]: 100 % of control

Cc1n[nH]c(=O)c2[nH]c3ccccc3c12
T/C [5]: 104 % of control
T/C [6]: 97 % of control
T/C [7]: 96 % of control

COc1ccc(Cc2nncc3ccccc23)cc1OC
T/C (dose: 6.25 mg/kg/injection, schedule: Q01DX009 (ip), vehicle: saline with Tween-80): 107 % of control
T/C (dose: 12.5 mg/kg/injection, schedule: Q01DX009 (ip), vehicle: saline with Tween-80): 107 % of control
T/C (dose: 25.0 mg/kg/injection, schedule: Q01DX009 (ip), vehicle: saline with Tween-80): 105 % of control
T/C [8]: 95 % of control
T/C [9]: 104 % of control

O=C1c2ccccc2C(=O)N1C/C=C\c1ccccc1
T/C (dose: 100.0 mg/kg/injection, schedule: Q01DX001 (ip), vehicle: saline): 102 % of control
T/C (dose: 200.0 mg/kg/injection, schedule: Q01DX001 (ip), vehicle: saline): 102 % of control
T/C (dose: 400.0 mg/kg/injection, schedule: Q01DX001 (ip), vehicle: saline): 107 % of control

Nc1c(/C=C/c2cc3cc(C4=NCCN4)ccc3o2)[nH]c2cc(C3=NCCN3)ccc12
T/C [4]: 245 % of control
T/C [10]: 110 % of control and 227 % of control

CCCCCCCCCCCCN(O)C(=O)c1ccccc1
T/C [11]: 99 % of control and 115 % of control
T/C [12]: 104 % of control
T/C [13]: 108 % of control and 96 % of control

CNC(=O)C(C(=O)NC)n1cnc(C(=O)OC)c1O
T/C (dose: 60.0 mg/kg/injection, schedule: Q01DX005 (ip), vehicle: water): 108 % of control
T/C (dose: 120.0 mg/kg/injection, schedule: Q01DX005 (ip), vehicle: water): 107 % of control
T/C (dose: 240.0 mg/kg/injection, schedule: Q01DX005 (ip), vehicle: water): 107 % of control

CN(CCN1C(=O)c2cccc3cccc(c23)C1=O)CCN1C(=O)c2cccc3cccc(c23)C1=O
T/C (dose: 50.0 mg/kg/injection, schedule: Q01DX005 (ip), vehicle: saline with Tween-80): 95 % of control
T/C [5]: 95 % of control
T/C (dose: 100.0 mg/kg/injection, schedule: Q01DX005 (ip), vehicle: saline with Tween-80): 87 % of control
T/C (dose: 200.0 mg/kg/injection, schedule: Q01DX005 (ip), vehicle: saline with Tween-80): 91 % of control
T/C [7]: 88 % of control

O=C(O)c1ccc(C(=O)N(CCP(c2ccccc2)c2ccccc2)CCP(c2ccccc2)c2ccccc2)cc1C(=O)O
T/C [11]: 110 % of control
T/C [12]: 90 % of control
T/C [13]: 94 % of control

CC(C)NC(=O)OCc1c(COC(=O)NC(C)C)c(-c2ccc(Cl)c(Cl)c2)n2c1CS(=O)C2 (stereo not drawn)
T/C (dose: 12.5 mg/kg/injection, schedule: Q01DX005 (ip), vehicle: Klucel + Tween-80): 99 % of control
T/C (dose: 25.0 mg/kg/injection, schedule: Q01DX005 (ip), vehicle: Klucel + Tween-80): 97 % of control
T/C (dose: 50.0 mg/kg/injection, schedule: Q01DX005 (ip), vehicle: Klucel + Tween-80): 92 % of control
T/C (dose: 100.0 mg/kg/injection, schedule: Q01DX005 (ip), vehicle: Klucel + Tween-80): 89 % of control
T/C (dose: 200.0 mg/kg/injection, schedule: Q01DX005 (ip), vehicle: Klucel + Tween-80): 104 % of control and 89 % of control

COc1ccc(C(=O)/C=C/c2ccc(OC)c(OC)c2OC)c(O)c1
T/C (dose: 100.0 mg/kg/injection, schedule: Q04DX003 (ip), vehicle: Klucel (hydroxypropylcellulose) (HPC)): 99 % of control
T/C (dose: 200.0 mg/kg/injection, schedule: Q04DX003 (ip), vehicle: Klucel (hydroxypropylcellulose) (HPC)): 99 % of control
T/C (dose: 400.0 mg/kg/injection, schedule: Q04DX003 (ip), vehicle: Klucel (hydroxypropylcellulose) (HPC)): 90 % of control

O=C(/C=C/c1ccccc1)CC1=NC2NN(c3ccccc3)C(=O)C2=C1CC(=O)/C=C/c1ccccc1 (stereo not drawn)
T/C (dose: 60.0 mg/kg/injection, schedule: Q01DX005 (ip), vehicle: suspension in saline): 95 % of control
T/C (dose: 120.0 mg/kg/injection, schedule: Q01DX005 (ip), vehicle: suspension in saline): 99 % of control
T/C (dose: 240.0 mg/kg/injection, schedule: Q01DX005 (ip), vehicle: suspension in saline): 107 % of control

CCOc1ccc2[nH]c(=S)sc2c1
T/C [11]: 100 % of control
T/C [12]: 100 % of control
T/C [13]: 101 % of control

CCCCCCCCN(/N=C/c1c2c(O)c3c(O)c(C)c4c(c3c1O)C(=O)C(C)(O/C=C/C(OC)C(C)C(OC(C)=O)C(C)C(O)C(C)C(O)C(C)/C=C/C=C(C)C(=O)N2)O4)C1OC(COC(=O)c2ccccc2)C(OC(=O)c2ccccc2)C1OC(=O)c1ccccc1 (stereo not drawn)
T/C [14]: 102 % of control
T/C [8]: 102 % of control
T/C [9]: 107 % of control

COC(=S)c1cccc(C(=S)OC)c1
T/C [14]: 108 % of control
T/C [8]: 115 % of control
T/C [9]: 108 % of control

O=[N+]([O-])c1ccc(OC2OCC(O)C(O)C2O)cc1 (stereo not drawn)
T/C [1]: 97 % of control
T/C (dose: 120.0 mg/kg/injection, schedule: Q01DX005 (ip), vehicle: saline): 88 % of control
T/C (dose: 240.0 mg/kg/injection, schedule: Q01DX005 (ip), vehicle: saline): 89 % of control

Cc1ccc(C(=O)/C(=C/c2ccccn2)N=[N+]=[N-])cc1
T/C (dose: 100.0 mg/kg/injection, schedule: Q01DX001 (ip), vehicle: saline with Tween-80): 110 % of control
T/C (dose: 200.0 mg/kg/injection, schedule: Q01DX001 (ip), vehicle: saline with Tween-80): 104 % of control
T/C (dose: 400.0 mg/kg/injection, schedule: Q01DX001 (ip), vehicle: saline with Tween-80): 99 % of control

COc1cc(/C=C/c2ccc(O)c(OC)c2)cc(OC)c1
T/C (dose: 6.25 mg/kg/injection, schedule: Q01DX005 (ip), vehicle: Klucel (hydroxypropylcellulose) (HPC)): 104 % of control
T/C [2]: 107 % of control
T/C [3]: 100 % of control
T/C [4]: 104 % of control and 108 % of control
T/C [10]: 95 % of control
T/C [15]: 88 % of control

COc1ccc(OC)c(CC(CC(=O)O)C(C)=O)c1 (stereo not drawn)
T/C (dose: 25.0 mg/kg/injection, schedule: Q01DX009 (ip), vehicle: other): 97 % of control
T/C (dose: 50.0 mg/kg/injection, schedule: Q01DX009 (ip), vehicle: other): 100 % of control
T/C (dose: 100.0 mg/kg/injection, schedule: Q01DX009 (ip), vehicle: other): 100 % of control
T/C (dose: 200.0 mg/kg/injection, schedule: Q01DX009 (ip), vehicle: other): 101 % of control
T/C (dose: 400.0 mg/kg/injection, schedule: Q01DX009 (ip), vehicle: other): 108 % of control

CC1CNC2(c3ccccc3)CSC=C(c3ccccc3)N12 (stereo not drawn)
T/C (dose: 100.0 mg/kg/injection, schedule: Q04DX002 (ip), vehicle: saline with Tween-80): 98 % of control
T/C (dose: 200.0 mg/kg/injection, schedule: Q04DX002 (ip), vehicle: saline with Tween-80): 101 % of control
T/C (dose: 400.0 mg/kg/injection, schedule: Q04DX002 (ip), vehicle: saline with Tween-80): 102 % of control

CC1=C(C)C(N(C)C)CS(=O)(=O)O1 (stereo not drawn)
T/C [4]: 99 % of control
T/C [10]: 104 % of control

O=S1(=O)CC(N2CCOCC2)C2=C(O1)c1ccccc1OCC2 (stereo not drawn)
T/C [4]: 98 % of control
T/C [10]: 97 % of control
T/C [15]: 88 % of control

C[N+]1=C(/C=C/Nc2ccc3c4c(cccc24)-c2ccccc2-3)C(C)(C)c2ccccc21
T/C [14]: 108 % of control
T/C [8]: 105 % of control
T/C [9]: 118 % of control

Nc1ncc2c(n1)CSCC2=O
T/C [5]: 98 % of control
T/C [6]: 100 % of control
T/C [7]: 90 % of control

CCC(=O)c1cccc2c(C=O)c(Cl)n(C(=O)CC)c12
T/C (dose: 50.0 mg/kg/injection, schedule: Q01DX001 (ip), vehicle: Klucel (hydroxypropylcellulose) (HPC)): 100 % of control
T/C (dose: 100.0 mg/kg/injection, schedule: Q01DX001 (ip), vehicle: Klucel (hydroxypropylcellulose) (HPC)): 100 % of control
T/C (dose: 200.0 mg/kg/injection, schedule: Q01DX001 (ip), vehicle: Klucel (hydroxypropylcellulose) (HPC)): 101 % of control
